The target in the test is LRRK2 G2019S (Homo sapiens (Human), UniProt Q5S007, G2019S). The test can be described thus: In Vitro LRRK2 Lanthascreen Binding Assay. The method, then:
In Vitro LRRK2 Lanthascreen Binding Assay
This assay was used to determine a compound's potency in inhibiting activity of LRRK2 by determining, Kiapp, IC50, or percent inhibition values. In 384 well proxiplates F black, shallow well plates LRRK2, Eu-anti-GST-antibody, Alexa Fluor® Kinase tracer 236 and test compound were incubated together.
Binding of the Alexa Fluor® “tracer” to a kinase is detected by addition of a Eu-labeled anti-GST antibody. Binding of the tracer and antibody to a kinase results in a high degree of FRET, whereas displacement of the tracer with a kinase inhibitor results in a loss of FRET.
Assay conditions and materials used were as follows:
Final Assay Conditions: • GST-LRRK2 G2019S 10 nM
Eu-anti-GST-antibody 2 nM • Kinase tracer 236 8.5 nM • Kinase reaction time: 1 hour • Temperature: ambient • Total volume: 15 μl • DMSO 1%
384 well proxiplates F black shallow well Perkin Elmer cat #6008260
Eu-labeled anti-GST antibody Invitrogen cat # PV5594
Alexa Fluor® Kinase tracer 236 Invitrogen cat #PV5592 • TRIS-HCl Sigma cat # T3253 • EGTA Sigma cat # E3889 • Brij-35: Sigma cat # B4184 (30% w/v) • DMSO: Sigma cat # D8418 • MgCl2 Sigma cat # M9272
Reaction Buffer: H2O/50 mM Tris, pH 7.4/10 mM MgCl2/1 mM EGTA/0.01% Brij 35
Compound Plate Preparation:
Serially dilute test compounds (10 mM stock) 1:3.16 (20 ul+43.2 ul) in 100% DMSO. 12 pt curve. Dilute each concentration 1:33.3 (3 ul+97 ul) in reaction buffer. Stamp 5 ul to assay plate. Final top test concentration 100 uM
Total and Blank Preparation:
In Reaction Buffer, 5 ul of DMSO (3%) was added to total and blank wells and 5 ul of Eu-labeled anti-GST antibody (6 nM) was added to blank wells. Add 5 ul LRRK2 (30 nM)/Eu-labeled anti-GST antibody (6 nM) mix to compound and total wells.
Add 5 ul kinase tracer (25.5 nM) to all wells. Incubate plates at room temperature for 1 hour on a plate shaker (gentle shaking). Read on Perkin Elmer EnVision reader HTRF protocol
Calculate ratio: (665/620)*10000. Subtract mean background values from all data points. Calculate % of control for each test value. Plot % of control vs Compound concentration. Calculate Ki Value (xlfit curve fitting—Morrison equation). Results expressed as a Ki in μM. Equation for Ki: Y=V0*(1−((x+Ki*(1+S/Km)+Et)/(2*Et)−(((x+Ki*(1+S/Km)+Et)^2−(4*Et*x))^0.5)/(2*Et)))
Tracer concentration (S)=8.5 nM
LRRK2 G2019S, sequence (Q5S007 whole entry G2019S): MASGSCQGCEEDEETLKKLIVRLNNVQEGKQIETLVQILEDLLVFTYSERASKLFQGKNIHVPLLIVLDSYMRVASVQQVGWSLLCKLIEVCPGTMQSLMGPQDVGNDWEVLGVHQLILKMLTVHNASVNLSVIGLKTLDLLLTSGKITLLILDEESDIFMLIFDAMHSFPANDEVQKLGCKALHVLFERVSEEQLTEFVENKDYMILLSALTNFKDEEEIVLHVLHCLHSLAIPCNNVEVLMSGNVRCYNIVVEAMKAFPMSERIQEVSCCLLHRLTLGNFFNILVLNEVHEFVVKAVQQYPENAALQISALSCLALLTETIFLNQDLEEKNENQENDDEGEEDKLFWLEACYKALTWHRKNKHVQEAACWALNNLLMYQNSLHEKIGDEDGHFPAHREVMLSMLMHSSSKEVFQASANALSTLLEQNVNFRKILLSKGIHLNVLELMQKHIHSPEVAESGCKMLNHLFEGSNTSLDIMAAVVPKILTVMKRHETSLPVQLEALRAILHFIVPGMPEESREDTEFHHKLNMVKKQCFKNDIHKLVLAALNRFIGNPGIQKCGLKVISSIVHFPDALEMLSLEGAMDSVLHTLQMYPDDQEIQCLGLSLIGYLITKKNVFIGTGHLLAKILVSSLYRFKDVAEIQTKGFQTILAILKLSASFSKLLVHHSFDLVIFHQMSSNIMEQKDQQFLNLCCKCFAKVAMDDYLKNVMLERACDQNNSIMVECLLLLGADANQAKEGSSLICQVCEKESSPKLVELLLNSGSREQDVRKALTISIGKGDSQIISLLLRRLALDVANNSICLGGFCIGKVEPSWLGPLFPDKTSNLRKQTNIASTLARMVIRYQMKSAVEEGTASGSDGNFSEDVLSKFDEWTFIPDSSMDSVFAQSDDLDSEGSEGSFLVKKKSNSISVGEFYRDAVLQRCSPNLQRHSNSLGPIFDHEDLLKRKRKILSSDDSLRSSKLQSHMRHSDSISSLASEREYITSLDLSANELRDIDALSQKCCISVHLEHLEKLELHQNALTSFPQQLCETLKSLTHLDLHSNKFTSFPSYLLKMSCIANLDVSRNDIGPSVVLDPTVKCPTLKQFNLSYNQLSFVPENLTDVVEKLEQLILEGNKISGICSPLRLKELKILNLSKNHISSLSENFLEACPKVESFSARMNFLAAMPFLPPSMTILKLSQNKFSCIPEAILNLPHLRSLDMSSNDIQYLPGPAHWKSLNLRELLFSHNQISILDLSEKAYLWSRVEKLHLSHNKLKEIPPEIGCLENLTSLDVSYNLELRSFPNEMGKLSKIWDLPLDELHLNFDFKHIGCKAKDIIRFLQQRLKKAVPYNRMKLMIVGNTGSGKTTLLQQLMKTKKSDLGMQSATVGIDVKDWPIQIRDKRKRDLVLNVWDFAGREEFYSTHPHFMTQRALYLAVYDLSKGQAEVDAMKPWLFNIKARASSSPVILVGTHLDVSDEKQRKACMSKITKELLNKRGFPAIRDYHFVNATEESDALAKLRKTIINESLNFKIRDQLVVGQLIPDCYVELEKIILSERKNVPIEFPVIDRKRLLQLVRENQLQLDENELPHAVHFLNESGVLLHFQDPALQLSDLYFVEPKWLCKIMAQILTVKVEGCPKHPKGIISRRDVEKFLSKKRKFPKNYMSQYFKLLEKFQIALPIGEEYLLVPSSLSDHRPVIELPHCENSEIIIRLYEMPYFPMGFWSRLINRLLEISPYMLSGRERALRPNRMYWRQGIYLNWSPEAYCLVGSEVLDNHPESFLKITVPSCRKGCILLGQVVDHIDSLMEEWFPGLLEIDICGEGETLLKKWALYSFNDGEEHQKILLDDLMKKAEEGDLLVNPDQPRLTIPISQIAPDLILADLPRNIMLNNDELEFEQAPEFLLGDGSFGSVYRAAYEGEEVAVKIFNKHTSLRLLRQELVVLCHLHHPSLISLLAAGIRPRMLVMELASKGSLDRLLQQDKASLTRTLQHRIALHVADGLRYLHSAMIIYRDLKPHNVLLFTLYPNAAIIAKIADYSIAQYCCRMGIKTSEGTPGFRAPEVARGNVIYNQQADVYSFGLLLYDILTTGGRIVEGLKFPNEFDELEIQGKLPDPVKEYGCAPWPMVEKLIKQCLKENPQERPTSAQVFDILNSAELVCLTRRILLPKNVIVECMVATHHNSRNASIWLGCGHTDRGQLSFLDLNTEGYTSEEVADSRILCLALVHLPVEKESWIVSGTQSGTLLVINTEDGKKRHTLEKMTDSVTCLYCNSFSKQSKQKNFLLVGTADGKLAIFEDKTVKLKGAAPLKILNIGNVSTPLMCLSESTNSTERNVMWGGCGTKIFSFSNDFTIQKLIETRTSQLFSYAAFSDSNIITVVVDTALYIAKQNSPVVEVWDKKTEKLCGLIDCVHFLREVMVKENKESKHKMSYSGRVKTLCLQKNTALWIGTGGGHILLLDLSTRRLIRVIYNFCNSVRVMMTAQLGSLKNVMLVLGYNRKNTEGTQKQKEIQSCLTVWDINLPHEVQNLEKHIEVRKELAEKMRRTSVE
As for `CNc1nc(Nc2cnn3c2C(C)OCC3(C)C)ncc1C(F)(F)F` (single isomer, unassigned) [Example 12, N4-methyl-5-(trifluoromethyl)-N2-(4,7,7-trimethyl-6,7-dihydro-4H-pyrazolo[5,1-c][1,4]oxazin-3-yl)pyrimidine-2,4-diamine], the Ki (in general, the dissociation constant of the complex between target and ligand, obtained from inhibition or displacement) was 2.6 nM.

`CCNc1nc(Nc2cnn3c2C(C)OCC3)ncc1C(F)(F)F` (single isomer, unassigned) [Example 14, N4-ethyl-N2-(4-methyl-6,7-dihydro-4H-pyrazolo[5,1-c][1,4]oxazin-3-yl)-5-(trifluoromethyl)pyrimidine-2,4-diamine] registered a Ki of 1.2 nM.

With `CNc1nc(Nc2cnn3c2C(C)OCC3)ncc1C(F)(F)F` (single isomer, unassigned) [Example 16, N4-methyl-N2-(4-methyl-6,7-dihydro-4H-pyrazolo[5,1-c][1,4]oxazin-3-yl)-5-(trifluoromethyl)pyrimidine-2,4-diamine], the Ki came to 3 nM.

Compound `CNc1nc(Nc2cnn3c2C(C)OC(C)C3)ncc1C(F)(F)F` (single isomer, unassigned) [Example 19, N2-(4,6-dimethyl-6,7-dihydro-4H-pyrazolo[5,1-c][1,4]oxazin-3-yl)-N4-methyl-5-(trifluoromethyl)pyrimidine-2,4-diamine] registered a Ki of 61.3 nM.

The compound `CNc1nc(Nc2cnn3c2C(C)OC(C)C3)ncc1C(F)(F)F` (single isomer, unassigned) [Example 20, N2-(4,6-dimethyl-6,7-dihydro-4H-pyrazolo[5,1-c][1,4]oxazin-3-yl)-N4-methyl-5-(trifluoromethyl)pyrimidine-2,4-diamine] returned a Ki of 5.7 nM.

For the compound `CNc1nc(Nc2cnn3c2C(C)OC(C)C3)ncc1C(F)(F)F` (single isomer, unassigned) [Example 21, N2-(4,6-dimethyl-6,7-dihydro-4H-pyrazolo[5,1-c][1,4]oxazin-3-yl)-N4-methyl-5-(trifluoromethyl)pyrimidine-2,4-diamine], the Ki came to 390 nM.

Compound `CNc1nc(Nc2cnn3c2CCCC3)ncc1C(F)(F)F` [Example 3, N4-methyl-N2-(4,5,6,7-tetrahydropyrazolo[1,5-a]pyridin-3-yl)-5-(trifluoromethyl)pyrimidine-2,4-diamine] registered a Ki of 7.5 nM.

Consider `CNc1nc(Nc2cnn3c2[C@H](C)N(C)CC3)ncc1C(F)(F)F` [Example 5, (S)-N2-(4,5-dimethyl-4,5,6,7-tetrahydropyrazolo[1,5-a]pyrazin-3-yl)-N4-methyl-5-(trifluoromethyl)pyrimidine-2,4-diamine], for which the Ki is 20 nM.

As for `CNc1nc(Nc2cnn3c2[C@@H](C)N(C)CC3)ncc1C(F)(F)F` [Example 6, (R)-N2-(4,5-dimethyl-4,5,6,7-tetrahydropyrazolo[1,5-a]pyrazin-3-yl)-N4-methyl-5-(trifluoromethyl)pyrimidine-2,4-diamine], the affinity, expressed as Ki, was 184 nM.

The compound `CCNc1nc(Nc2cnn3c2[C@H](C)N(C)CC3)ncc1C(F)(F)F` [Example 7, (S)-N2-(4,5-dimethyl-4,5,6,7-tetrahydropyrazolo[1,5-a]pyrazin-3-yl)-N4-ethyl-5-(trifluoromethyl)pyrimidine-2,4-diamine] registered a Ki of 9.5 nM.

`CCNc1nc(Nc2cnn3c2[C@@H](C)N(C)CC3)ncc1C(F)(F)F` [Example 8, (R)-N2-(4,5-dimethyl-4,5,6,7-tetrahydropyrazolo[1,5-a]pyrazin-3-yl)-N4-ethyl-5-(trifluoromethyl)pyrimidine-2,4-diamine] came in with a Ki of 144 nM.

The compound `C[C@H]1c2c(Nc3ncc(C(F)(F)F)c(NC4CC4)n3)cnn2CCN1C` [Example 9, (S)-N4-cyclopropyl-N2-(4,5-dimethyl-4,5,6,7-tetrahydropyrazolo[1,5-a]pyrazin-3-yl)-5-(trifluoromethyl)pyrimidine-2,4-diamine] yielded a Ki of 4.9 nM.

Turning to `C[C@@H]1c2c(Nc3ncc(C(F)(F)F)c(NC4CC4)n3)cnn2CCN1C` [Example 10, (R)-N4-cyclopropyl-N2-(4,5-dimethyl-4,5,6,7-tetrahydropyrazolo[1,5-a]pyrazin-3-yl)-5-(trifluoromethyl)pyrimidine-2,4-diamine], the affinity corresponds to a Ki of 44.4 nM.

`CNc1nc(Nc2cnn3c2C(C)OCC3(C)C)ncc1C(F)(F)F` (stereo not shown) [Example 11, N4-methyl-5-(trifluoromethyl)-N2-(4,7,7-trimethyl-6,7-dihydro-4H-pyrazolo[5,1-c][1,4]oxazin-3-yl)pyrimidine-2,4-diamine] displayed a Ki of 212 nM.

Regarding `CCNc1nc(Nc2cnn3c2C(C)OCC3)ncc1C(F)(F)F` (stereo not shown) [Example 13, N4-ethyl-N2-(4-methyl-6,7-dihydro-4H-pyrazolo[5,1-c][1,4]oxazin-3-yl)-5-(trifluoromethyl)pyrimidine-2,4-diamine], the Ki was 47.7 nM.

The compound `CNc1nc(Nc2cnn3c2C(C)OCC3)ncc1C(F)(F)F` (stereo not shown) [Example 15, N4-methyl-N2-(4-methyl-6,7-dihydro-4H-pyrazolo[5,1-c][1,4]oxazin-3-yl)-5-(trifluoromethyl)pyrimidine-2,4-diamine] had a Ki of 279 nM.

With `CNc1nc(Nc2cnn3c2COCC3)ncc1C(F)(F)F` [Example 17, N2-(6,7-dihydro-4H-pyrazolo[5,1-c][1,4]oxazin-3-yl)-N4-methyl-5-(trifluoromethyl)pyrimidine-2,4-diamine], the Ki is 2.3 nM.

As for `CNc1nc(Nc2cnn3c2C(C)OC(C)C3)ncc1C(F)(F)F` (stereo not shown) [Example 18, N2-(4,6-dimethyl-6,7-dihydro-4H-pyrazolo[5,1-c][1,4]oxazin-3-yl)-N4-methyl-5-(trifluoromethyl)pyrimidine-2,4-diamine], the affinity, expressed as Ki, was 1.8 nM.

`CNc1nc(Nc2cnn3c2COC(C)(C)C3)ncc1C(F)(F)F` [Example 22, N2-(6,6-dimethyl-6,7-dihydro-4H-pyrazolo[5,1-c][1,4]oxazin-3-yl)-N4-methyl-5-(trifluoromethyl)pyrimidine-2,4-diamine] registered a Ki of 0.9 nM.

Turning to `CCNc1nc(Nc2cnn3c2COC(C)(C)C3)ncc1C(F)(F)F` [Example 23, N2-(6,6-dimethyl-6,7-dihydro-4H-pyrazolo[5,1-c][1,4]oxazin-3-yl)-N4-ethyl-5-(trifluoromethyl)pyrimidine-2,4-diamine], the affinity corresponds to a Ki of 0.3 nM.

Consider `CNc1nc(Nc2cnn3c2CCC3)ncc1C(F)(F)F` [Example 24, N2-(5,6-dihydro-4H-pyrrolo[1,2-b]pyrazol-3-yl)-N4-methyl-5-(trifluoromethyl)pyrimidine-2,4-diamine], for which the inhibition constant Ki was 0.6 nM.

For the compound `CNc1nc(Nc2cnn3c2N(C)CC3)ncc1C(F)(F)F` [Example 25, N4-methyl-N2-(1-methyl-2,3-dihydro-1H-imidazo[1,2-b]pyrazol-7-yl)-5-(trifluoromethyl)pyrimidine-2,4-diamine], the Ki is 31.2 nM.

Take `CNc1nc(Nc2cnn3c2CN(C)CC3)ncc1C(F)(F)F` [Example 26, N^4-methyl-N^2-(5-methyl-4,5,6,7-tetrahydropyrazolo[1,5-a]pyrazin-3-yl)-5-(trifluoromethyl)pyrimidine-2,4-diamine]: affinity was put at a Ki of 33.5 nM.

In turn, `CNc1nc(Nc2cnn3c2C2(COC2)OCC3)ncc1C(F)(F)F` [Example 27, N^2-(6′7′-dihydrospiro[oxetane-3,4′-pyrazolo[5,1-c][1,4]oxazine]-3-yl)-N^4-methyl-5-(trifluoromethyl)pyrimidine-2,4-diamine] gave a Ki of 819 nM.

As for `CNc1nc(Nc2cc3n(n2)CCOC3)ncc1C(F)(F)F` [Example 30, N^2-(6,7-dihydro-4H-pyrazolo[5,1-c][1,4]oxazin-2-yl)-N^4-methyl-5-(trifluoromethyl)pyrimidine-2,4-diamine], the affinity corresponds to a Ki of 10.9 nM.

The record behind these values is patent US9212186B2, “Bicyclic pyrazole LRRK2 small molecule inhibitors” (Genentech, Inc., priority 2012, dated 2015).
